Source: patent publication US9376369B2, “Anti-cholesterolemic compounds and methods of use” (priority 2006, dated 2016)

Legend:
[1] = system: human aortic smooth muscle cells; assay: Cholesterol biosynthesis ([14C]acetate incorporation) in cultured cells with ox-LDL; assay type: cell-based; conditions: for hypocholesterolemic activity: purified compounds isolated from EO, cell-based bioassay
Procedure: Cells were incubated with aqueous extracts of O. sanctum (JH-1), EO (JH-2), W. somnifera (JH-3) and EuMil (JH-4) at concentration 500 μg/ml in medium supplemented with 100 μg/ml oxidized LDL. Cells incubated with 100 μg/ml ox-LDL served as a control. [14C] acetate (2 μCi/ml) was added and incorporation of radioactivity into cholesterol and cholesteryl esters was measured after 24 h of incubation in standard cell culture conditions. Lovastatin (10 μM) plus ox-LDL served as a positive control.
H-ASMC (×10^5) were seeded in plastic 6-well trays and grown in smooth muscle cells medium-2 (Cambrex). Incubation was pursued in a water-jacketed incubator with 5% CO2 and 95% air. After the cells reached confluence medium was replaced by plain serum-free medium. Following incubation for 24 h fresh medium, 100 μg/ml ox-LDL and various herbal fractions solubilized in 12.5% DMSO were added. Cells that were incubated with lovastatin (10 μM) served as a positive control in all experiments.
Cells were incubated with and without ox-LDL and EuMil/ingredients and [14C] acetate ([…], 24 h). Next, medium was removed; the monolayers were washed three times with PBS. Cells were extracted with hexane:isopropanol (3:2 by volume, 2×3 ml) at room temperature. The extracts were pooled in glass tubes and total lipid extract dried in nitrogen atmosphere. 1N NaOH (1 ml) was added to each tube to solubilize proteins and the incubated overnight in open air. Next, water (2 ml) was added to the air dried tubes, the contents were mixed and utilized for protein measurement using BCA protein assay kit (Pierce, Rockford, Ill.)
The total lipid extracts were dried in stream of nitrogen, re-suspended in chloroform-methanol (2:1 by volume) and applied on a HPTLC silica gel plate. Standard solutions of cholesterol, monolein, diolein, triolein, fatty acid and cholesteryl oleate (50 μg each) also were applied to the plate. The plates were developed in heptane-ether-acetic acid (85:15:1 by volume). Following development, the plates were dried in air and exposed to an X-ray film for 2-3 days at […]. After the films were developed, the HPTLC plates were immersed in iodine vapors to identify the migration of individual neutral lipid molecular species. Gel areas, corresponding to cholesterol were scraped and radioactivity was measured using Beckman liquid scintillation spectrometer. The data was expressed as counts per mg protein. The incorporation of radioactivity in cells incubated with oxidized LDL was considered as 100% (control). All experimental values in cells treated with EuMil/ingredients plus oxidized LDL were expressed as a percentage of the control. All assays were conducted in triplicate.

[2] = system: human aortic smooth muscle cells; assay: Measurement of the level (mass) of cholesterol in cells; assay type: cell-based; conditions: active fractions 5 μg/ml
Procedure: FIG. 9 is a graph showing the effect of active fractions from EO on cholesterol level in human ASMC. Cells were incubated with active fractions (5 μg/ml) and cholesterol mass was determined.
Following treatment cells were extracted with hexane-isopropanol 3:2 by volume as described above. The pooled extracts were dried in a stream of nitrogen and subjected to measurement of total cholesterol mass using a cholesterol kit (WAKO chemicals, VA) with cholesterol as the standard. The data was expressed as μg cholesterol per mg protein.

H-ASMC = assay: Cell proliferation ([3H]thymidine incorporation); assay type: cell-based, human
Procedure: Following incubation for 18 h with and without ox-LDL and EuMil/ingredients and lovastatin [3H]thymidine ([…]) was added in 96 well dishes and incubation continued for 6 h at 37° C. Next, the cells were washed and the incorporation of [3H]thymidine into DNA was measured employing scintillation spectrometry. The data was calculated as dpm/well. All experimental values were expressed as a percentage of the control values (cells incubated with ox-LDL alone).

[3] = system: human aortic smooth muscle cells; assay: Cholesterol uptake ([3H]cholesterol); assay type: cell-based; conditions: [3H]cholesterol 5 μCi/ml, serum-free medium, 24 h
Procedure: FIG. 11 is a graph showing the effect of active compounds from EO on uptake of cholesterol in human aortic smooth muscle cells. Confluent culture of cells grown in 96 well plates was incubated in serum-free medium with [3H]cholesterol (5 μCi/ml) with and without active fractions. After 24 h the uptake of cholesterol was measured by scintillation spectrometry.
Confluent culture of human aortic smooth muscle cells were pre-incubated in serum-free DMEM for 24 h. Next, fresh medium and [3H]cholesterol (5 μCi/ml) plus various herbal compounds were added. Following incubation for 24 h and 48 h, [3H]cholesterol taken up by cell was measured by solubilization in 1 M NaOH and radioactivity measured.

[4] = system: human aortic smooth muscle cells; assay: Cholesterol efflux ([3H]cholesterol); assay type: cell-based; conditions: 24 h with fractions after [3H]cholesterol labelling
F344 rats = conditions: both sexes, 5% GA in diet, week 1 to end of 13 weeks; cited from earlier work
[5] = Behaviour of mucic acid gallates in aqueous solution; assay type: physicochemical; conditions: as previously reported [22]
Excerpt: It should be noted that the mucic acid gallates derivatives 7 and 9 equilibrate in aqueous solutions as previously reported, while 1-methyl mucate-2-gallate (8) is not an artifact of the isolation procedure as it could be isolated when only ethanol, water and acetonitrile were used.

[6] = 10 μM plus 100 μg/ml ox-LDL, 24 h, ox-LDL alone = control

Molecule | hypocholesterolemic activity [1] | cellular mass / level of cholesterol in ASMC [2] | further results
CCOC(=O)c1cc(O)c(O)c(O)c1 [Compound 2b, ethyl gallate] | hypocholesterolemic active compounds |  | 
glucose-6-gallate (GG6) [Compound 5] | hypocholesterolemic active compounds | effective in decreasing cholesterol level | 
CC[C@H](C)C(=O)O[C@H]1C[C@@H](C)C=C2C=C[C@H](C)[C@H](CC[C@@H]3C[C@@H](O)CC(=O)O3)[C@H]21 [Lovastatin, lovastatin, reference compound] |  |  | effect on cell proliferation (H-ASMC): did not appear to inhibit; biosynthesis of cholesterol compared to control [1, 6]: ~20%; biosynthesis of cholesteryl esters compared to control [1, 6]: ~50%; inhibition of cholesterol uptake in H-ASMC [3]: not effective
O=C(OC[C@H]1OC(OC(=O)c2cc(O)c(O)c(O)c2)[C@H](O)[C@@H](O)[C@@H]1O)c1cc(O)c(O)c(O)c1 (some centres unmarked) [Compound 6, glucose-1,6-digallate (DGG16)] | hypocholesterolemic active compounds | effective in decreasing cholesterol level | 
O=C(O)c1cc(O)c(O)c(O)c1 [Compound 1, gallic acid] | hypocholesterolemic active compounds |  | efflux of cholesterol from cultured H-ASMC [4]: effective; efflux of cholesterol from cultured H-ASMC ([4]; listed as gallate): very effective; body weight gain versus untreated controls (F344 rats): significantly lower
O=C(OCC(O)CO)c1cc(O)c(O)c(O)c1 (centres unmarked) [Compound 3, glycerol-1-gallate] | hypocholesterolemic active compounds |  | 
mucic acid-2-gallate [Compound 7] | hypocholesterolemic active compounds | effective in decreasing cholesterol level | stability in aqueous solutions [5]: equilibrate
O=C(OC(C(=O)O)C1OC(=O)C(O)C1O)c1cc(O)c(O)c(O)c1 (centres unmarked) [Compound 9, mucic acid 1,4-lactone 5-gallate] | hypocholesterolemic active compounds | effective in decreasing cholesterol level | stability in aqueous solutions [5]: equilibrate
COC(=O)c1cc(O)c(O)c(O)c1 [Compound 2a, methyl gallate] | hypocholesterolemic active compounds |  | inhibition of cholesterol uptake in H-ASMC [3]: markedly inhibit; efflux of cholesterol from cultured H-ASMC [4]: very effective
COC(=O)C(OC(=O)c1cc(O)c(O)c(O)c1)C(O)C(O)C(O)C(=O)O (centres unmarked) [Compound 8, 1-methyl mucate-2-gallate] | hypocholesterolemic active compounds | effective in decreasing cholesterol level | 
O=C(O[C@@H]1O[C@H](CO)[C@@H](O)[C@H](O)[C@H]1O)c1cc(O)c(O)c(O)c1 [Compound 4, glucose-1-gallate (GG1)] | hypocholesterolemic active compounds |  | 
